In ChEMBL document CHEMBL1145666, “Geriatrics photo quiz. Thoracic aortic aneurysm” (1983):
Values after ≈ are worked out from the molar mass of the structure shown.

Experiments:
Format in all cases: functional
P388 [1] = assay: Antitumor activity against mouse P388 cells; details: read-out: ED50 (the source's name)
P388 [2] = assay: In vivo antitumor activity against mouse P388 cells at 40 ug/kg relative to control
P388 [3] = assay: In vivo antitumor activity against mouse P388 cells at 20 ug/kg relative to control

`C=C(C)[C@]12C[C@@H](C)[C@@]34OC5(CCCCCCC[C@H](C)[C@H]6[C@H](C)[C@H](OC(=O)c7ccccc7)[C@@](O)([C@H](O)[C@@]7(CO)O[C@H]7[C@H]3[C@H]1O5)[C@@H]64)O2` [PIMELEA FACTOR P2] showed an EC50 (P388 [1]) of 0.79 ng/mL (≈ 1.24 nM), a T/C (P388 [2]) of 130 and a T/C (P388 [3]) of 132.

`C=C(C)[C@]12C[C@@H](C)[C@@]34O[C@](CCCCCCCCC)(O[C@@H]1[C@@H]3[C@@H]1O[C@]1(CO)[C@@H](O)[C@]1(O)C(=O)C(C)=C[C@H]14)O2` [SIMPLEXIN] was tested, and the EC50 (P388 [1]) was 5 ng/mL (≈ 9.39 nM).
